Test results: the NIST ThermoML archive (doi:10.1016/j.jct.2017.02.023)

Columns and labels:
[1] = xn = mol fraction of the nth substance listed; conditions: 81.5 kPa, Liquid, Vibrating tube method
[2] = refractive index (Na D-line) (dimensionless); xn = mol fraction of the nth substance listed; conditions: 81.5 kPa, Liquid, Standard Abbe refractometry

CNC1CCCCC1 [N-methylcyclohexylamine] + CCC(C)O
Conditions	mass density, 298.15 K [kg/m3]	mass density, 308.15 K [kg/m3]	mass density, 318.15 K [kg/m3]	mass density, 328.15 K [kg/m3]	refractive index, 298.15 K	refractive index, 308.15 K	refractive index, 318.15 K	refractive index, 328.15 K
[1], x2 = 0	865.2	856.57	847.67	838.68	–	–	–	–
[1], x2 = 0.1217	861.95	853.4	844.58	835.58	–	–	–	–
[1], x2 = 0.2333	858.47	849.82	840.98	831.86	–	–	–	–
[1], x2 = 0.3367	854.47	845.86	836.97	827.75	–	–	–	–
[1], x2 = 0.4323	850	841.4	832.5	823.2	–	–	–	–
[1], x2 = 0.5211	845.14	836.51	827.6	818.27	–	–	–	–
[1], x2 = 0.603	840.01	831.35	822.48	813.01	–	–	–	–
[1], x2 = 0.6803	834.52	825.88	817.02	807.46	–	–	–	–
[1], x2 = 0.7528	828.72	820.14	811.27	801.72	–	–	–	–
[1], x2 = 0.8202	822.7	814.18	805.33	795.72	–	–	–	–
[1], x2 = 0.8827	816.47	807.88	799.18	789.6	–	–	–	–
[1], x2 = 0.9426	809.83	801.25	792.58	782.94	–	–	–	–
[2], x2 = 0	–	–	–	–	1.45306	1.44812	1.4431	1.43809
[2], x2 = 0.1217	–	–	–	–	1.44931	1.44493	1.44047	1.43597
[2], x2 = 0.2333	–	–	–	–	1.44578	1.44144	1.43701	1.43258
[2], x2 = 0.3367	–	–	–	–	1.44206	1.43776	1.4334	1.42907
[2], x2 = 0.4323	–	–	–	–	1.43795	1.43374	1.42946	1.4252
[2], x2 = 0.5211	–	–	–	–	1.43338	1.42927	1.42503	1.42076
[2], x2 = 0.603	–	–	–	–	1.42849	1.42444	1.42021	1.41587
[2], x2 = 0.6803	–	–	–	–	1.42326	1.41926	1.41502	1.41065
[2], x2 = 0.7528	–	–	–	–	1.41783	1.41387	1.40967	1.40535
[2], x2 = 0.8202	–	–	–	–	1.41236	1.40841	1.40429	1.4001
[2], x2 = 0.8827	–	–	–	–	1.40689	1.40292	1.39886	1.39478
[2], x2 = 0.9426	–	–	–	–	1.40126	1.39719	1.39303	1.38886

CNC1CCCCC1 [N-methylcyclohexylamine] + CCCCCCC(C)O
Conditions	mass density, 298.15 K [kg/m3]	mass density, 308.15 K [kg/m3]	mass density, 318.15 K [kg/m3]	mass density, 328.15 K [kg/m3]	refractive index, 298.15 K	refractive index, 308.15 K	refractive index, 318.15 K	refractive index, 328.15 K
[1], x2 = 0	865.2	856.57	847.67	838.68	–	–	–	–
[1], x2 = 0.0727	861.37	852.86	844.07	835.18	–	–	–	–
[1], x2 = 0.148	857.59	849.18	840.45	831.62	–	–	–	–
[1], x2 = 0.2246	853.95	845.6	836.92	828.14	–	–	–	–
[1], x2 = 0.3025	850.34	842.06	833.44	824.7	–	–	–	–
[1], x2 = 0.3826	846.62	838.42	829.86	821.17	–	–	–	–
[1], x2 = 0.4636	842.77	834.65	826.15	817.53	–	–	–	–
[1], x2 = 0.5484	838.61	830.58	822.16	813.61	–	–	–	–
[1], x2 = 0.6332	834.36	826.43	818.08	809.6	–	–	–	–
[1], x2 = 0.7205	829.99	822.17	813.9	805.49	–	–	–	–
[1], x2 = 0.8128	825.54	817.82	809.62	801.27	–	–	–	–
[1], x2 = 0.9052	821.3	813.66	805.52	797.23	–	–	–	–
[2], x2 = 0	–	–	–	–	1.45306	1.44812	1.4431	1.43809
[2], x2 = 0.0727	–	–	–	–	1.45123	1.44643	1.44156	1.43676
[2], x2 = 0.148	–	–	–	–	1.44931	1.44459	1.43978	1.43507
[2], x2 = 0.2246	–	–	–	–	1.44739	1.44272	1.43794	1.43327
[2], x2 = 0.3025	–	–	–	–	1.44545	1.44084	1.43612	1.43148
[2], x2 = 0.3826	–	–	–	–	1.44348	1.43892	1.43425	1.42963
[2], x2 = 0.4636	–	–	–	–	1.44143	1.43692	1.43233	1.42778
[2], x2 = 0.5484	–	–	–	–	1.43898	1.43456	1.43003	1.42554
[2], x2 = 0.6332	–	–	–	–	1.43641	1.43207	1.42763	1.42323
[2], x2 = 0.7205	–	–	–	–	1.4337	1.42942	1.42503	1.42073
[2], x2 = 0.8128	–	–	–	–	1.43079	1.42658	1.42227	1.41802
[2], x2 = 0.9052	–	–	–	–	1.42779	1.42366	1.41941	1.41523

CNC1CCCCC1 [N-methylcyclohexylamine] + CCCCC(C)O
Conditions	mass density, 298.15 K [kg/m3]	mass density, 308.15 K [kg/m3]	mass density, 318.15 K [kg/m3]	mass density, 328.15 K [kg/m3]	refractive index, 298.15 K	refractive index, 308.15 K	refractive index, 318.15 K	refractive index, 328.15 K
[1], x2 = 0	865.2	856.57	847.67	838.68	–	–	–	–
[1], x2 = 0.0915	861.23	852.73	843.97	835.05	–	–	–	–
[1], x2 = 0.1814	857.43	848.96	840.23	831.33	–	–	–	–
[1], x2 = 0.2693	853.71	845.27	836.53	827.62	–	–	–	–
[1], x2 = 0.3559	849.84	841.4	832.77	823.77	–	–	–	–
[1], x2 = 0.44	845.7	837.27	828.7	819.71	–	–	–	–
[1], x2 = 0.5256	841.05	832.6	824.08	815.12	–	–	–	–
[1], x2 = 0.608	836.06	827.68	819.22	810.28	–	–	–	–
[1], x2 = 0.6858	831.06	822.74	814.31	805.47	–	–	–	–
[1], x2 = 0.7668	825.76	817.47	809.16	800.26	–	–	–	–
[1], x2 = 0.8463	820.48	812.27	804.01	795.06	–	–	–	–
[1], x2 = 0.9235	815.36	807.2	798.91	789.93	–	–	–	–
[2], x2 = 0	–	–	–	–	1.45306	1.44812	1.4431	1.43809
[2], x2 = 0.0915	–	–	–	–	1.45049	1.44581	1.44104	1.43628
[2], x2 = 0.1814	–	–	–	–	1.4477	1.44305	1.43835	1.43364
[2], x2 = 0.2693	–	–	–	–	1.445	1.44038	1.43572	1.43103
[2], x2 = 0.3559	–	–	–	–	1.44229	1.4377	1.43309	1.42844
[2], x2 = 0.44	–	–	–	–	1.43938	1.43484	1.43029	1.42569
[2], x2 = 0.5256	–	–	–	–	1.43598	1.43151	1.42702	1.42247
[2], x2 = 0.608	–	–	–	–	1.43233	1.42789	1.42346	1.41895
[2], x2 = 0.6858	–	–	–	–	1.42866	1.42425	1.41985	1.41537
[2], x2 = 0.7668	–	–	–	–	1.42478	1.42041	1.41606	1.41162
[2], x2 = 0.8463	–	–	–	–	1.42103	1.4167	1.4124	1.40799
[2], x2 = 0.9235	–	–	–	–	1.41731	1.41299	1.4087	1.40428
